Data reported in patent US7135182B2, “Inhibition of transglutaminase-mediated microbial interaction with a mammalian host” (priority 1998, dated 2006).

Columns and labels:
[1] = molecular target: T1, guinea pig liver transglutaminase (UniProt P08587); assay: Fluorescence assay of transglutaminase-catalyzed cross-linking of 5-(biotinamido)pentylamine to C. albicans germ tube surfaces; assay type: biochemical; conditions: C. albicans SC5314 germ tubes; EGTA 20 mM (FIG. 2B)
T1 construct: guinea pig liver transglutaminase (8.5 μg); from tissue; host or cells: guinea pig liver
T1 sequence (P08587 whole entry): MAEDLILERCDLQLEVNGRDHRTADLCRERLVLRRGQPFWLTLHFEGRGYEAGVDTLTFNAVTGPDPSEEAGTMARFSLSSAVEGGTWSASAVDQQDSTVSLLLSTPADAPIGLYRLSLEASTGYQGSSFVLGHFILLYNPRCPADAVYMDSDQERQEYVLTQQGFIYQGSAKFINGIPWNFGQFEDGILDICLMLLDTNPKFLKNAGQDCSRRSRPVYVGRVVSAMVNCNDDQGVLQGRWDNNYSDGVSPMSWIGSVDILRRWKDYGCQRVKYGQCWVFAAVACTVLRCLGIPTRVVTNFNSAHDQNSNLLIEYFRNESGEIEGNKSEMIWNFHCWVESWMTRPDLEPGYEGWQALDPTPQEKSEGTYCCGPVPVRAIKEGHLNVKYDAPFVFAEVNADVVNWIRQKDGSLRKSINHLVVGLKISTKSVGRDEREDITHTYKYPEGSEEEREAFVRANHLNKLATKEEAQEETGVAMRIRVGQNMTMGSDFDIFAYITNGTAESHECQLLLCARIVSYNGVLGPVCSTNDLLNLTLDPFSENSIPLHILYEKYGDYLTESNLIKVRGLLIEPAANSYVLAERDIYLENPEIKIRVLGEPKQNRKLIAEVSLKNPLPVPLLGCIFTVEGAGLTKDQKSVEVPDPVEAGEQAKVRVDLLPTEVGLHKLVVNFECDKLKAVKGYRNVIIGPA
Procedure: To detect germ tube surface proteins serving as glutamine donors in transglutaminase-catalyzed cross-linking reactions, a fluorescence assay using a biotinylated lysine analogue as the primary amine acceptor and liver transglutaminase was developed.
Washed M199-germinated C. albicans cells (10^8/ml), guinea pig liver transglutaminase (8.5 μg), and 5-(biotinamido)pentylamine (30 μM) (Pierce) were incubated in reaction buffer 1 (400 μl) (100 mM Tris-Cl pH 7.5, 5 mM CaCl2, 1 mM DTT, 2 mM EDTA) for 15 minutes at 37° C. Reactions were stopped with EDTA (10 mM), germ tubes were washed with distilled water, spotted onto microscope slides, air dried, incubated with avidin-FITC (1:100) (Zymed) and BSA-rhodamine (1:30) (Difco) in PBS at 37° C., washed and examined by fluorescence microscopy.

[2] = test system: adhesion of C. albicans germ tubes (UnoPP-1) to human buccal epithelial cells (BECs); assay: Stabilized (covalent) adhesion of radiolabeled C. albicans germ tubes to human buccal epithelial cells; assay type: cell-based, Candida albicans
Procedure: Mass conversion of yeasts, radiolabeled with Tran^35S-label (ICN) (5 μCi/ml), to germ tubes (5×10^6/ml) was induced in prewarmed M199 (40 ml) for 2.5 hours at 37° C. No differences in the proportion of (>95%) germ tubes or in germ tube length were seen among strains. Washed germ tubes and BECs from a healthy donor, suspended in 300 μl of reaction buffer 3 (50 mM Tris-Cl pH 7.5, 10 mM CaCl2, 1 mM EDTA, 1 mM DTT), at a germ tube/BEC ratio of 100:1, were mixed, incubated for 1 hour at 37° C. followed by reaction termination with 100 mM EGTA (75 μl). The BEC donors understood the nature of the studies and consented to provide BECs. Radioactivity of BEC fractions was determined by scintillation counting after centrifugation on 50% Percoll gradients, and germ tubes per BEC was determined using the specific activity of each strain. Background counts, determined from gradients with germ tubes only, were less than 6% of counts for germ tube/BEC mixtures and were subtracted from counts of epithelial cell-germ tube mixtures. […]
Radiolabeled germ tubes of the control strain, UnoPP-1, were incubated with BECs at a ratio of 100:1 with or without 5 or 10 mM monodansylcadaverine in reaction buffer 3, supra. […] The cell mixtures were incubated for 1 hour at 37° C., and the number of germ tubes covalently attached to BECs were determined. […]

| Structure (SMILES) | effect on transglutaminase-mediated fluorescence labelling of germ tubes [1] | stabilized adhesion of UnoPP-1 to BECs with transglutaminase inhibited ([2]; iodoacetamide 10 mM, BECs pretreated 15 minutes, CAH7-1A was 23% of UnoPP-1) | reduction of adhesion of germ tubes to BEC relative to DMSO control ([2]; 5 or 10 mM, UnoPP-1 germ tubes/BEC 100:1, 1 hour at 37° C., covalently attached germ tubes) |
| --- | --- | --- | --- |
| O=C(O)CN(CCOCCOCCN(CC(=O)O)CC(=O)O)CC(=O)O [EGTA] | inhibited | – | – |
| NC(=O)CI [iodoacetamide] | inhibited | low level of stabilized adhesion of CAH7-1A was equivalent to that of UnoPP-1 | – |
| CN(C)c1cccc2c(S(=O)(=O)NCCCCCN)cccc12 [monodansylcadaverine] | – | – | approximately 87% |
